# Results published in patent EP1056745B1, “6,9-DISUBSTITUTED 2- TRANS-(4- AMINOCYCLOHEXYL) AMINO]PURINES” (Aventis Pharmaceuticals Inc., priority 1998, dated 1999).
# pIC50: −log10 of the molar value.
# Columns and labels:
# [1] = tested on: PC-3 Human Prostate Tumor; assay: Subrenal capsule assay, inhibition of PC-3 tumor growth; type: in vivo, Nude Mice; conditions: for V/V0 (mean ± s.e.m.): 12 days, Experiment # 1; for %T/C: day 12, Experiment # 1
# Method: Nude mice were housed in microisolator cages under positive air pressure. Surgical procedures and dosing were performed in a laminar flow cabinet. The subrenal capsule assay was performed as described in Bogden, A. E., Kelton, D. E., Cobb, W. R. and Esber, H. J. A rapid screening method for testing chemotherapeutic agents against human tumor xenografts. In: D. P. Houchens and A. A. Ovejera (eds.), Proceedings of the Symposium on the Use of Athymic (Nude) Mice in Cancer Research, pp 231-250. New York: Gustav Fischer New York, Inc. 1978. Briefly, tumors of 400-500 mm^3 obtained from maintenance mice were cut into 1 mm^3 pieces and the sizes checked using an ocular micrometer and a dissecting microscope. After exteriorization of the kidney, tumor pieces were implanted under the capsule of the kidneys of male nude mice (6-8 weeks of age) using a 13 Ga trochar. After implantation, the longest and shortest diameters of the tumor piece were measured using the ocular micrometer and a dissecting microscope. The kidney was placed back into the body cavity and the body wall incision closed with silk sutures and the skin incision closed with wound clips. Drug treatment was begun on the day following implantation and continued for 12 days at which time the kidneys were again exteriorized and tumor size measured as described above. Tumor volume was calculated by the formula, V = length x width^2/2 as described in Houchens, D. P., Ovejera, A. A., and Barker, A. D. The therapy of human tumors in athymic (nude) mice. In : D. P. Houchens and A. A. Ovejera (eds.), Proceedings of the Symposium on the Use of Athymic (Nude) Mice in Cancer Research, pp. 267-280. New York: Gustav Fischer New York, Inc., 1978.
# proliferating PC12 cells = conditions: cited from earlier work
# rat sympathetic neurons = conditions: camptothecin-treated; cited from earlier work
# [2] = tested on: cAMP- and cGMP-dependent kinases, and protein kinase C; conditions: cited from earlier work
# [3] = tested on: CDK-cyclin protein kinases; conditions: moderate inhibitory activity; cited from earlier work
# [4] = tested on: neuronal PC12 cells and sympathetic neurons; conditions: two model systems of neuronal survival; cited from earlier work
# cortical neurons = conditions: cited from earlier work; for pIC50: protection against camptothecin-induced death
# [5] = tested on: neuronally differentiated PC12 cells; conditions: cited from earlier work; for concentration of maximal protection from death: camptothecin-treated; for cell death: day 6, in the presence or absence of camptothecin, both or individual
# [6] = camptothecin-treated neuronal cells
Structure (SMILES),V/V0 (mean ± s.e.m.) ([1]; 1 mg/kg i.p. daily),%T/C ([1]; 1 mg/kg i.p. daily),V/V0 (mean ± s.e.m.) ([1]; 3 mg/kg i.p. daily),%T/C ([1]; 3 mg/kg i.p. daily),minimum concentration that fully inhibits DNA synthesis (proliferating PC12 cells),concentration of maximal protection from death (rat sympathetic neurons),effect on other major protein kinases [2],pIC50 [3],death of neuronal cells [4],pIC50 (cortical neurons),concentration of maximal protection from death [5],cell death [5],prevention of cell death (cortical neurons; [6]),"prevention of cell death [5, 6]"
"Cl.Cl.N[C@H]1CC[C@H](Nc2nc(NCc3cccc(I)c3)c3ncn(C4CCCC4)c3n2)CC1 [Example 1, 2-[Trans-(4-aminocyclohexyl)amino]-6-(3-iodobenzylamino)-9-cyclopentylpurine dihydrochloride]",4.8 ± 3.1,109%,2.0 ± 1.0,44%,–,–,–,–,–,–,–,–,–,–
"Cn1cnc2c(NCc3ccccc3)nc(NCCO)nc21 [Olomoucine, 6-(benzylamino)-2-[(2-hydroxyethyl)amino]-9-methylpurine]",–,–,–,–,200 µM,200 µM,no effect,~5.15,suppress the death,4.00,200 µM,approximately 30%,–,–
CN1CC[C@H](c2c(O)cc(O)c3c(=O)cc(-c4ccccc4Cl)oc23)[C@H](O)C1 [flavopiridol],–,–,–,–,1 µM,1 µM,–,–,suppress the death,7.00,1 µM,approximately 30%,–,–
Cn1cnc2nc(NCCO)nc(NCc3ccccc3)c21 [iso-olomoucine],–,–,–,–,–,–,–,–,–,–,–,–,failed to prevent the cell death,failed to prevent the cell death
